Reference: article PMC7367369, “A small library of chalcones induce liver cancer cell death through Akt phosphorylation inhibition” (Scientific Reports, 2020)
Read-outs that look alike come from different tables or passages of the source.

What was measured:
[1] = system: dental pulp stem cells (DPSC); assay: NCI-60 sulforhodamine B (SRB) cytotoxicity assay, dental pulp stem cells; assay type: cell-based, human; settings: Homo sapiens; SRB, 72 h, 2.5–40 μM, triplicate; untransformed control cells; read-out: IC50 DPSC
Experimental: (§1) The bioactivities of the synthesized chalcones were assessed on human liver cancer cell lines and on DPSCs with NCI-SRB assay in vitro. DPSCs used to asses the bioactivity of chalcones on untransformed control cells with the potential of hepatic lineage. […] We also included 5-Fluorouracil which is used in clinics for gastrointestinal cancers and Sorafenib. All results were normalized to DMSO negative control measurements. The experiment was performed in triplicate.
Dental pulp stem cells (DPSCs) were isolated from anonymised unidentified healthy intact wisdom tooth. DPSCs were isolated within few hours upon wisdom teeth surgery from patients above 18 years old. All were informed about the procedures, and their consents were obtained. Teeth were broken carefully in order to reach the dental pulp area. […] Then, the cells were seeded onto flasks in 10ml DMEM-F12 media (Lonza) supplemented with 1% penicillin/streptomycin solution (Hyclone) and 15% FBS (Fetal Bovine Serum,Hyclone, Logan, UT, USA) and cultured in a 5% CO2 incubator at 37^∘C .
(§2) Primary liver cancer cells Huh7, HepG2, Hep3B, Mahlavu, FOCUS, Snu475 along with hepatic progenitor Dental pulp stem cells were seeded into 96-well plates (1,000–3,000 HCC cell/well and 10,000 cells DPSC/well ) for 24 h. The cells were then treated with increasing concentrations of the chalcones ( 2.5-40μM ). DMSO (AppliChem Biochemica, Darmstadt, Germany) was used as negative control. The growth has stopped at the end of 72 h by fixing cold with 10% (v/v) trichloroacetic acid (Merck, Schuchardt, Germany). Cells were then stained with 0.4% (m/v) of sulforhodamine (Sigma-Aldrich, St. Louis, USA) in 1% acetic acid solution. […] All experiments were done in triplicate.

Mahlavu and Huh7 cells = assay: Cell cycle analysis (propidium iodide); assay type: cell-based, human; settings: Mahlavu and Huh7, IC50 concentrations, 72 h
Experimental: Human liver cancer cells Mahlavu and Huh7 were treated with the compounds according to the IC50 values obtained from RT-CES experiments or DMSO controls for 72hr. […] We further assessed the effects of the selected chalcones 1, 9, and 11 on the cell cycle progression analysis of liver cancer cells. Human liver cancer cells Mahlavu and Huh7 were treated with the compounds according to the IC50 values obtained from RT-CES for 72 h. Then the DNA in the treated cells were stained with propidium iodide and analyzed with fluorescent-activated cell sorter. […] In order to confirm the induction of apoptosis in human liver cancer cells treated with the chalcones, cleavage of PARP protein (marker of apoptosis) was investigated.
Figure 3 Cell death induced by the chalcones. (A) Nuclear staining of the liver cancer cells treated with the chalcones. Human liver cancer cells (Huh7 and Mahlavu) were treated with the IC50 concentrations of the chalcones 1, 9, 11. After 72 h of incubation with the compounds or DMSO control, Hoechst (33258) staining was performed. Images were taken with fluorescent microscope (×40). Due to the strong cytotoxic activities of the chalcones the number of the cells in objective area was much less than DMSO controls. (B) Cell cycle distribution of liver cancer cells. Huh7 and Mahlavu cells were treated for 72 h with IC50 concentrations of the compounds or DMSO control. SubG1 cell cycle arrest was observed upon treatment with the compounds (blue). (C) Investigation of PARP cleavage in Huh7 and Mahlavu cells treated with the selected chalcones for 24 h.
Then samples were stained with propidium iodide which binds to DNA and analyzed with MUSE® Cell Cycle Assay Kit (EMD Milipore).

Mahlavu = assay: NCI-60 sulforhodamine B (SRB) cytotoxicity assay, Mahlavu; assay type: cell-based, human; settings: Homo sapiens, Mahlavu; SRB, 72 h, 2.5–40 μM, triplicate; read-out: IC50 Mahlavu
Experimental: as §1
(§3) Well differentiated human primary liver cancer cell lines Huh7, HepG2 and Hep3B, and poorly differentiated Mahlavu, FOCUS and SNU475 HCC cells were cultured in Dulbecco’s Modified Eagle’s Standard (DMEM) medium supplemented with 10% Fetal Bovine Serum (FBS), 100 units/mL penicillin and 100 µg/mL streptomycin (Gibco, Invitrogen, Carlsbad, CA, USA). 0.1 mM nonessential amino acids (NEAA) which are specific to HCC cell lines also added to culture media. Cells were cultured in a 5% CO2 incubator at 37^∘C
as §2

Hep3B = assay: NCI-60 sulforhodamine B (SRB) cytotoxicity assay, Hep3B; assay type: cell-based, human; settings: Homo sapiens, Hep3B; SRB, 72 h, 2.5–40 μM, triplicate; read-out: IC50 Hep3B
Experimental: as §1, §3, §2

Huh7 = assay: Real-time cell electronic sensing (RT-CES) growth analysis, Huh7; assay type: cell-based; settings: Homo sapiens, Huh-7
Experimental: The selected 3 compounds were further analyzed with real-time cell electronic sensing (RT-CES) system to assess the real-time growth behavior of the cells treated with the compounds. Huh7 and Mahlavu liver cancer cells were treated with the selected chalcones and monitored with RT-CES. Results of the compounds were normalized to data of negative control DMSO.
Figure 2 Real-time cell growth analysis. Human liver cancer cells Huh7 (left panel) and Mahlavu (right panel) were treated with the selected compounds. Cell index measurements were obtained by RT-CES software. DMSO was used as negative control. (A) The growth inhibition values of the compounds were obtained by the normalization with DMSO. Experiments were performed in triplicate. (B) IC50 values calculated from RT-CES experiment data. TEXT PRINTED IN THE PICTURE: (B) 1: Huh7 24h: 3.7; Huh7 72h: 5.2; Mahlavu 24h: 1.2; Mahlavu 72h: 2.3 | (B) 9: Huh7 24h: 16.1; Huh7 72h: 11.5; Mahlavu 24h: 4.9; Mahlavu 72h: 6.8 | (B) 11: Huh7 24h: 8.7; Huh7 72h: 8.8; Mahlavu 24h: 4.9; Mahlavu 72h: 6.8 DOUBTS OF THE COPYIST ABOUT THIS PICTURE: Panel B table: the picture prints no measure and no unit for the values
Huh7 and Mahlavu cells were inoculated into the e-plate (1000–2000 cells/well). The attachment, spreading, and proliferation of the cells were monitored every 30 minutes using the Xcelligence® Real-Time Cell Analysis system (ACEA Biosciences Inc.) in a cell culture incubator. […] When cells reach to an cell index (CI) impedance values about 1.5 usually in 24 hours cells were treated with the chalcones 1, 9 and 11. DMSO was used as a negative control. Each experiment was repeated three times. The CI value was noted every 10 minutes for the first 24 hours and then every 30 minutes upon chalcone treatments. The cell inhibition rate calculated as follows (%)=[1-(CItreatedcells/CIDMSO)]×100 .

FOCUS = assay: NCI-60 sulforhodamine B (SRB) cytotoxicity assay, FOCUS; assay type: cell-based, human; settings: Homo sapiens; SRB, 72 h, 2.5–40 μM, triplicate; read-out: IC50 FOCUS
Experimental: as §1, §3, §2

SNU475 = assay: NCI-60 sulforhodamine B (SRB) cytotoxicity assay, SNU475; assay type: cell-based, human; settings: Homo sapiens, SNU-475; SRB, 72 h, 2.5–40 μM, triplicate; read-out: IC50 SNU475
Experimental: as §1, §3, §2

[2] = Huh7, 24h, read-out: IC50 values calculated from RT-CES experiment data, Huh7 24h
[3] = Huh7, 72h, read-out: IC50 values calculated from RT-CES experiment data, Huh7 72h

Row | Compound | IC50 [1] | cell cycle progression (Mahlavu and Huh7 cells) | IC50 (Mahlavu) | IC50 (Hep3B) | IC50 (Huh7; [2]) | IC50 (Huh7; [3]) | IC50 (FOCUS) | IC50 (SNU475)
1 | O=C(/C=C/c1ccccc1)c1ccccc1 [compound 9] | 25.7 µM | induced SubG1 cell cycle arrest | 6.3 µM | 7.3 µM | 16.1 µM | 11.5 µM | 3.3 µM | 5 µM
2 | O=C(/C=C/c1ccc(Cl)cc1)c1ccccc1 [compound 11] | 19.1 µM | induced SubG1 cell cycle arrest | 5.3 µM | 5.9 µM | 8.7 µM | 8.8 µM | 3.1 µM | 9 µM
3 | COc1ccc(C(=O)/C=C/c2cccc([N+](=O)[O-])c2)cc1 [compound 1] | > 40 µM | induced SubG1 cell cycle arrest | < 2.5 µM | 6.2 µM | 3.7 µM | 5.2 µM | 4.9 µM | 3 µM
